In patent publication US20080194585A1, “Fungicidal Pyrazine Derivatives” (priority 2005, published 2008):
Marks after values point to notes of the source that are not given here.

What was measured:
Conditions in all cases: 40 ppm (*)
Rhizoctonia oryzae = assay: Test G: turf brown patch, preventive spray on creeping bent grass seedlings
Experimental: (the causal agent of turf brown patch) and incubated in a saturated atmosphere at 27° C. for 24 h, and then moved to a growth chamber at 27° C. for 5 days, after which disease ratings were made.

Botrytis cinerea = assay: Test E: tomato botrytis, preventive spray on tomato seedlings
[1] = system: Puccinia recondita f. sp. tritici; assay: Test K: wheat leaf rust, preventive spray on wheat seedlings
Sclerotinia sclerotiorum = assay: Test C: cucumber white mold, preventive spray on cucumber seedlings
Septoria nodorum = assay: Test H: wheat glum blotch, preventive spray on wheat seedlings
Experimental: (the causal agent of wheat glum blotch) and incubated in a saturated atmosphere at 20° C. for 48 h, and then moved to a growth chamber at 22° C. for 5 days, after which disease ratings were made.

Septoria tritici = assay: Test J: wheat leaf blotch, preventive spray on wheat seedlings; assay type: in vivo
Excerpt: A dash (-) indicates no test results.

Phytophthora infestans = assay: whole plant or invertebrate; assay type: in vivo
[2] = system: Erysiphe graminis f. sp. tritici; assay: Test L: wheat powdery mildew, preventive spray on wheat seedlings
Plasmopara viticola = assay: Test D: grape downy mildew, spray after inoculation of grape seedlings; assay type: in vivo
Excerpt: Upon removal, disease ratings were made. […] A dash (-) indicates no test results.

Pythium aphanidermatum = assay: Test A: bluegrass pythium blight, preventive spray on bluegrass seedlings
[3] = system: Colletotrichum orbiculare; assay: Test B: cucumber Colletotrichum anthracnose, preventive spray on cucumber seedlings

SMILES	Test G disease control rating (Rhizoctonia oryzae)	Test E disease control rating (Botrytis cinerea)	Test K disease control rating [1]	Test C disease control rating (Sclerotinia sclerotiorum)	Test H disease control rating (Septoria nodorum)	Test J disease control rating (Septoria tritici)	Test F disease control rating (Phytophthora infestans)	Test L disease control rating [2]	Test D disease control rating (Plasmopara viticola)	Test A disease control rating (Pythium aphanidermatum)	Test B disease control rating [3]
CC(C)Cn1c(-c2c(F)cccc2F)c(Cl)nc(-n2ccnn2)c1=O [compound 215]	0* %	99* %	55* %	0* %	0* %	0* %	0* %	0* %	29* %	0* %	0* %
CCC(C)Cn1c(-c2ccc(F)cc2Cl)c(Cl)nc(N2CCC=N2)c1=O (centres unmarked) [compound 216]	0* %	100* %	94* %	0* %	89* %	97* %	0* %	94* %	0* %	0* %	53* %
CCC(C)Cn1c(-c2ccc(F)cc2Cl)c(Cl)nc(N2CCC(=O)N2)c1=O (centres unmarked) [compound 217]	0* %	100* %	86* %	90* %	86* %	96* %	0* %	62* %	0* %	0* %	0* %
CC[C@H](C)Cn1c(-c2c(F)cc(F)cc2F)c(Cl)nc(N2CCC=N2)c1=O [compound 218]	43* %	100* %	100* %	99* %	100* %	100* %	0* %	100* %	29* %	0* %	99* %
CC[C@H](C)Cn1c(-c2c(F)cc(F)cc2F)c(Cl)nc(-n2ccc(C)n2)c1=O [compound 219]	99* %	100* %	100* %	70* %	100* %	100* %	0* %	100* %	36* %	0* %	100* %
N#Cc1nc(Cl)c(-c2c(F)cccc2F)n(Cc2ccc(Cl)cc2)c1=O [compound 220]	0* %	0* %	0* %	0* %	0* %	25* %	0* %	0* %	0* %	0* %	0* %
O=c1c(-n2cccn2)nc(Cl)c(-c2c(F)cccc2F)n1Cc1ccc(Cl)cc1 [compound 221]	16* %	99* %	89* %	0* %	98* %	100* %	0* %	0* %	0* %	0* %	0* %
O=c1c(-n2cncn2)nc(Cl)c(-c2c(F)cccc2F)n1Cc1ccc(Cl)cc1 [compound 222]	0* %	92* %	79* %	0* %	60* %	86* %	0* %	0* %	0* %	0* %	0* %
CC1CCCCC1n1c(-c2c(F)cccc2F)c(Cl)nc(C#N)c1=O (centres unmarked) [compound 223]	0* %	0* %	0* %	0* %	0* %	17* %	0* %	51* %	0* %	0* %	0* %
CC1CCCCC1n1c(-c2c(F)cccc2F)c(Cl)nc(-n2cccn2)c1=O (centres unmarked) [compound 224]	92* %	100* %	94* %	0* %	99* %	100* %	0* %	83* %	0* %	0* %	66* %
CC1CCCCC1n1c(-c2c(F)cccc2F)c(Cl)nc(-n2cncn2)c1=O (centres unmarked) [compound 225]	0* %	100* %	73* %	0* %	73* %	100* %	0* %	0* %	0* %	0* %	0* %
CCCCn1c(-c2c(F)cc(F)cc2F)c(Cl)nc(N2CCC=N2)c1=O [compound 226]	0* %	0* %	82* %	0* %	95* %	100* %	0* %	46* %	0* %	0* %	0* %
CCCCn1c(-c2c(F)cc(F)cc2F)c(Cl)nc(-n2cccn2)c1=O [compound 227]	100* %	100* %	100* %	0* %	100* %	100* %	0* %	99* %	96* %	0* %	96* %
